Reference: ChEMBL document CHEMBL4311992, “Discovery of 3-(((9H-purin-6-yl)amino)methyl)-4,6-dimethylpyridin-2(1H)-one derivatives as novel tubulin polymerization inhibitors for treatment of cancer” (Eur J Med Chem, 2019)
Activity calls are given as the source filed them. The rule behind the calls is not given here.

Legend:
HCT-116 = test: Induction of apoptosis in human HCT116 cells assessed as viable cells at 50 nM measured after 48 hrs by Annexin V-FITC/propidium iodide staining-based flow cytometry (reference value: 94.5%); assay type: functional; details: HCT-116, 48 h, read-out: Activity
[1] = target: Myosin-IIIb (Homo sapiens) (UniProt Q8WXR4); test: Inhibition of recombinant full-length human MYO3B (1 to 326 residues) assessed as residual activity at 10 uM using RLGRDKYKTLRQIRQ as substrate measured after 40 mins in presence of [gamma33P]ATP by scintillation counting method
[2] = target: Dual specificity mitogen-activated protein kinase kinase 1 (Homo sapiens) (UniProt Q02750); test: Inhibition of recombinant full-length human MEK1 assessed as residual activity at 10 uM using unactive MAPK2 as substrate measured after 40 mins in presence of [gamma33P]ATP by scintillation counting method
Homo sapiens [3] = species: Homo sapiens; test: Inhibition of recombinant full-length human AURKA I31F mutant assessed as residual activity at 10 uM using LRRASLG as substrate measured after 40 mins in presence of [gamma33P]ATP by scintillation counting method
[4] = tested on: Tyrosine-protein kinase receptor UFO (Homo sapiens), P30530 [Q764R]; test: Inhibition of recombinant human AXL Q764R mutant (473 to end residues) assessed as residual activity at 10 uM using KKSRGDYMTMQIG as substrate measured after 40 mins in presence of [gamma33P]ATP by scintillation counting method
[5] = tested on: Tyrosine-protein kinase Blk (Homo sapiens), P51451 [UNDEFINED MUTATION]; test: Inhibition of full-length recombinant human BLK M287V mutant assessed as residual activity at 10 uM using poly(Glu, Tyr) 4:1 as substrate measured after 40 mins in presence of [gamma33P]ATP by scintillation counting method
[6] = target: Bone morphogenetic protein receptor type-2 (Homo sapiens) (UniProt Q13873); test: Inhibition of recombinant human BMPR2 (172 to 734 residues) assessed as residual activity at 10 uM using myelin basic protein as substrate measured after 120 mins in presence of [gamma33P]ATP by scintillation counting method
[7] = tested on: Fibroblast growth factor receptor 1 (Homo sapiens), P11362 [V561M]; test: Inhibition of recombinant human FGFR1 V561M mutant (456 to 765 residues) assessed as residual activity at 10 uM using GGEEEEYFELVKKKK as substrate measured after 40 mins in presence of [gamma33P]ATP by scintillation counting method
[8] = target: Fibroblast growth factor receptor 1 (Homo sapiens) (UniProt P11362); test: Inhibition of recombinant human FGFR1 (456 to 765 residues) assessed as residual activity at 10 uM using KKKSPGEYVNIEFG as substrate measured after 40 mins in presence of [gamma33P]ATP by scintillation counting method
[9] = target: CDK9/cyclin T1 (Homo sapiens) (UniProt O60563+P50750); test: Inhibition of recombinant full length human CDK9/cyclinT1 assessed as residual activity at 10 uM using KTFCGTPEYLAPEVRREPRILSEEEQEMFRDFDYIADWC as substrate measured after 40 mins in presence of [gamma33P]ATP by scintillation counting method; assay type: protein-complex assay
[10] = target: Dual specificity protein kinase CLK4 (Homo sapiens) (UniProt Q9HAZ1); test: Inhibition of recombinant human CLK4 (128 to end residues) assessed as residual activity at 10 uM using YRRAAVPPSPSLSRHSSPHQS(p)EDEEE as substrate measured after 40 mins in presence of [gamma33P]ATP by scintillation counting method
[11] = target: Casein kinase I isoform gamma-1 (Homo sapiens) (UniProt Q9HCP0); test: Inhibition of recombinant human CK1gamma1 (25 to 355 residues) assessed as residual activity at 10 uM using KRRRALS(p)VASLPGL as substrate measured after 40 mins in presence of [gamma33P]ATP by scintillation counting method
[12] = target: Receptor-type tyrosine-protein kinase FLT3 (Homo sapiens) (UniProt P36888); test: Inhibition of recombinant human Flt3 (564 to end residues) assessed as residual activity at 10 uM using EAIYAAPFAKKK as substrate measured after 40 mins in presence of [gamma33P]ATP by scintillation counting method
[13] = target: SRSF protein kinase 3 (Homo sapiens) (UniProt Q9UPE1); test: Inhibition of recombinant full-length human MSSK1 assessed as residual activity at 10 uM using ERMRPRKRQGSVRRRV as substrate measured after 40 mins in presence of [gamma33P]ATP by scintillation counting method
[14] = target: Serine/threonine-protein kinase 4 (Homo sapiens) (UniProt Q13043); test: Inhibition of recombinant full-length human MST1 assessed as residual activity at 10 uM using KKSRGDYMTMQIG as substrate measured after 40 mins in presence of [gamma33P]ATP by scintillation counting method
[15] = target: Serine/threonine-protein kinase PLK3 (Homo sapiens) (UniProt Q9H4B4); test: Inhibition of recombinant human Plk3 (19 to 301 residues) assessed as residual activity at 10 uM using casein as substrate measured after 40 mins in presence of [gamma33P]ATP by scintillation counting method
[16] = tested on: Proto-oncogene tyrosine-protein kinase receptor Ret (Homo sapiens), P07949 [V804M]; test: Inhibition of human Ret V804M mutant (658 to end residues) using […] as substrate measured after 40 mins in presence of [gamma33P]ATP by scintillation counting method; design: scale not given: the % may be the effect or the level left
[17] = target: Serine/threonine-protein kinase TBK1 (Homo sapiens) (UniProt Q9UHD2); test: Inhibition of recombinant full-length human TBK1 assessed as residual activity at 10 uM using KRRRALS(p)VASLPGL as substrate measured after 40 mins in presence of [gamma33P]ATP by scintillation counting method
[18] = target: Serine/threonine-protein kinase ULK1 (Homo sapiens) (UniProt O75385); test: Inhibition of human ULK1 (1 to 314 residues) using casein as substrate measured after 40 mins in presence of [gamma33P]ATP by scintillation counting method; design: scale not given: the % may be the effect or the level left
Homo sapiens [19] = species: Homo sapiens; test: Inhibition of recombinant full-length human ATRIP/ATR M211T mutant assessed as residual activity at 10 uM using GST-cMyc-p53 as substrate measured after 40 mins by fluorescence assay
Homo sapiens [20] = species: Homo sapiens; test: Inhibition of recombinant full-length human PI3K p110alpha/p65alpha (1 to 571 residues) assessed as residual activity at 10 uM using phosphatidylinositol-4, 5-bisphosphate as substrate measured after 40 mins by HTRF assay
[21] = Toxicity in nude BALB/c mouse assessed as change in total protein level at 40 to 80 mg/kg, po once daily for 4 weeks measured post-last dose; assay type: organism-based; details: in vivo, 672 h
Tubulin (Sus scrofa) = Tubulin (Sus scrofa) (UniProt P02554+P02550); test: Inhibition of porcine brain tubulin polymerization at 0.05 to 30 uM by fluorescence assay
Tubulin (Sus scrofa), sequence (P02550 whole entry, looked up): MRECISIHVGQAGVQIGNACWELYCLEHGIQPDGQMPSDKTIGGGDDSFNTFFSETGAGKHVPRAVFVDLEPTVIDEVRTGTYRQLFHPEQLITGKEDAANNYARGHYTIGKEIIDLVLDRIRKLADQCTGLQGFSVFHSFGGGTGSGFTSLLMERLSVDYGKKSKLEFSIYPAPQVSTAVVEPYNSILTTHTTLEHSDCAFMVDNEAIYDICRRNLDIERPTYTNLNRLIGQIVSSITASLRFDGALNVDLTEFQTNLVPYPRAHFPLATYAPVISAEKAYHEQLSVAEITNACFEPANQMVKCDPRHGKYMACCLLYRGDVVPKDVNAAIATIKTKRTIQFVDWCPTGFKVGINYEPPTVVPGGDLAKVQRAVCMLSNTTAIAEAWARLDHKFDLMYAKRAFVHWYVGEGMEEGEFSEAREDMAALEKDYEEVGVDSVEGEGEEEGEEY
Tubulin (Sus scrofa), sequence (P02554 whole entry, looked up): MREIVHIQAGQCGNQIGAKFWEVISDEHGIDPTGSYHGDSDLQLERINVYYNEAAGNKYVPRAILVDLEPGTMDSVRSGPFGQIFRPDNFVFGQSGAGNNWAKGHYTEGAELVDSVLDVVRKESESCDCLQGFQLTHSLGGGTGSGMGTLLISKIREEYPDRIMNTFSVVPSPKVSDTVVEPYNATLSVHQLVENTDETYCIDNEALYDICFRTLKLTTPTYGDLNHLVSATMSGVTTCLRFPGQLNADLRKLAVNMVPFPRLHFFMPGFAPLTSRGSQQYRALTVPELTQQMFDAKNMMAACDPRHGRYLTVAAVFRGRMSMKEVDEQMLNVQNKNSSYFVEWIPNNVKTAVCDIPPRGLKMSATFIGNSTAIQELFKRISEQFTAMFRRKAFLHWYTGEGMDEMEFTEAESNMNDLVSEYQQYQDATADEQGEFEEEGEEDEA

Serine/threonine-protein kinase TBK1 (Homo sapiens), sequence (Q9UHD2 whole entry, the tested form may be a part): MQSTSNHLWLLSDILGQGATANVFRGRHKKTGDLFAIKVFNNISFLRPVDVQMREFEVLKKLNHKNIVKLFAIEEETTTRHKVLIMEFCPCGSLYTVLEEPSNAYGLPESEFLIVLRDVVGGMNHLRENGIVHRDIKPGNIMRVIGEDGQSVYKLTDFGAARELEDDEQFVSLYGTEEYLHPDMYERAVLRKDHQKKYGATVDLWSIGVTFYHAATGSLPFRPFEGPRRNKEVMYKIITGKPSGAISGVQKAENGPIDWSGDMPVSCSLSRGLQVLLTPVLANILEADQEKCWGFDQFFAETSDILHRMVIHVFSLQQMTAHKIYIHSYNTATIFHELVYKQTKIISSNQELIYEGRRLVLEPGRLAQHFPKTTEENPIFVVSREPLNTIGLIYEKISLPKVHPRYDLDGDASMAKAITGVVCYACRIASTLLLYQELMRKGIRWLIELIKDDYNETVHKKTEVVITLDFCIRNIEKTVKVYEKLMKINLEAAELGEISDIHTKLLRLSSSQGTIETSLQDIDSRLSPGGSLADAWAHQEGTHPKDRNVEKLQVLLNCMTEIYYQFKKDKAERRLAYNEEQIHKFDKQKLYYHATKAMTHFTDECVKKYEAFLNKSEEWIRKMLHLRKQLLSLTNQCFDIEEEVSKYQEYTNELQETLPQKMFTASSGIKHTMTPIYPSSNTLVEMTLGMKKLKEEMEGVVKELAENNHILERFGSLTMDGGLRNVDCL
Tyrosine-protein kinase receptor UFO (Homo sapiens), P30530 [Q764R], sequence (P30530 whole entry Q764R): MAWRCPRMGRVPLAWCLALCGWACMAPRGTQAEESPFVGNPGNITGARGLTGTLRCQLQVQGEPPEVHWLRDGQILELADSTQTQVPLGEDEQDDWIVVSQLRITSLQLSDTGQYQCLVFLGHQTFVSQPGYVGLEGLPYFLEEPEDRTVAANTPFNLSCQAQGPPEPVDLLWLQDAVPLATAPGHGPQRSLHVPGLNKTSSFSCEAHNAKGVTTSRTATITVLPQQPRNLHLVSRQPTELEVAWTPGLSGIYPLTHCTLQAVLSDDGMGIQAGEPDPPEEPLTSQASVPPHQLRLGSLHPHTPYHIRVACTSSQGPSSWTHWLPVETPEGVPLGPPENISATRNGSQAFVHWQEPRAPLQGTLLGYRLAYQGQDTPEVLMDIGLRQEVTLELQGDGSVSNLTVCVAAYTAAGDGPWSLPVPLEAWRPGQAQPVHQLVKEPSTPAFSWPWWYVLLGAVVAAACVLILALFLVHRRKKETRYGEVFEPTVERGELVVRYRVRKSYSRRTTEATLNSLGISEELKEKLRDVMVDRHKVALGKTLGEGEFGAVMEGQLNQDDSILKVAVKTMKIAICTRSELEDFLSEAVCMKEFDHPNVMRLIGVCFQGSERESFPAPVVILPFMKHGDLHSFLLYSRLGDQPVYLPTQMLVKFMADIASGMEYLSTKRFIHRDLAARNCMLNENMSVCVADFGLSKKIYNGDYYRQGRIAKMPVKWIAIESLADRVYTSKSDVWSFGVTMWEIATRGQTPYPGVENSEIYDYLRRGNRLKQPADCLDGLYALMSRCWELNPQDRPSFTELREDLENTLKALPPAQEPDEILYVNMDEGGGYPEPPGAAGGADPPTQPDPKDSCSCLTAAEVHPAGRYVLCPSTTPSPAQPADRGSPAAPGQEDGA
Tyrosine-protein kinase Blk (Homo sapiens), P51451 [UNDEFINED MUTATION], sequence (P51451 whole entry, looked up, stated change not applied, the tested form may be a part): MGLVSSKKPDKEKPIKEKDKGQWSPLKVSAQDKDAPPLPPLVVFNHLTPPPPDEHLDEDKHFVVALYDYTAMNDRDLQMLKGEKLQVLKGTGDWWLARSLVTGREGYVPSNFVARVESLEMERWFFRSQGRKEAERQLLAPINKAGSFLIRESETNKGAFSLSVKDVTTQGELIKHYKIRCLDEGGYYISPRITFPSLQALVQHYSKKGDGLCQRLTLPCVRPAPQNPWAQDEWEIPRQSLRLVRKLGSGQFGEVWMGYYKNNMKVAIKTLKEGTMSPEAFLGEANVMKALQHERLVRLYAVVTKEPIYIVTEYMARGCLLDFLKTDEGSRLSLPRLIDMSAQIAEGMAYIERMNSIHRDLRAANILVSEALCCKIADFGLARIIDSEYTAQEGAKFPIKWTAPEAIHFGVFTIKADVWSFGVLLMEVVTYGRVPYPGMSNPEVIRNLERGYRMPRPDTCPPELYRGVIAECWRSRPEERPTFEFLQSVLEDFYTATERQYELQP
Serine/threonine-protein kinase 4 (Homo sapiens), sequence (Q13043 whole entry, the tested form may be a part): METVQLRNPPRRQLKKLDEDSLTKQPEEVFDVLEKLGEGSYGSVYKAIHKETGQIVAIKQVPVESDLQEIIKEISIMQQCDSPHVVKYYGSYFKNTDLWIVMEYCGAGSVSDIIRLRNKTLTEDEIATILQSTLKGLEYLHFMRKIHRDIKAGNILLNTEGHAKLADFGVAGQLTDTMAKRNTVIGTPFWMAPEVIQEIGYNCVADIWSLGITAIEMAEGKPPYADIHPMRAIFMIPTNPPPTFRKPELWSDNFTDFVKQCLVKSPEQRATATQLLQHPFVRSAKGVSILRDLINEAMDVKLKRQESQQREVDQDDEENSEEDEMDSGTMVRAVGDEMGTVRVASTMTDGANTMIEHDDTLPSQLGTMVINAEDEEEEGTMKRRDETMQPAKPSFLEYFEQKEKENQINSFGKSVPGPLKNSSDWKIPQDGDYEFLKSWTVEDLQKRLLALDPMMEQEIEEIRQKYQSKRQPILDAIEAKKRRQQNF
Serine/threonine-protein kinase PLK3 (Homo sapiens), sequence (Q9H4B4 whole entry, looked up, the tested form may be a part): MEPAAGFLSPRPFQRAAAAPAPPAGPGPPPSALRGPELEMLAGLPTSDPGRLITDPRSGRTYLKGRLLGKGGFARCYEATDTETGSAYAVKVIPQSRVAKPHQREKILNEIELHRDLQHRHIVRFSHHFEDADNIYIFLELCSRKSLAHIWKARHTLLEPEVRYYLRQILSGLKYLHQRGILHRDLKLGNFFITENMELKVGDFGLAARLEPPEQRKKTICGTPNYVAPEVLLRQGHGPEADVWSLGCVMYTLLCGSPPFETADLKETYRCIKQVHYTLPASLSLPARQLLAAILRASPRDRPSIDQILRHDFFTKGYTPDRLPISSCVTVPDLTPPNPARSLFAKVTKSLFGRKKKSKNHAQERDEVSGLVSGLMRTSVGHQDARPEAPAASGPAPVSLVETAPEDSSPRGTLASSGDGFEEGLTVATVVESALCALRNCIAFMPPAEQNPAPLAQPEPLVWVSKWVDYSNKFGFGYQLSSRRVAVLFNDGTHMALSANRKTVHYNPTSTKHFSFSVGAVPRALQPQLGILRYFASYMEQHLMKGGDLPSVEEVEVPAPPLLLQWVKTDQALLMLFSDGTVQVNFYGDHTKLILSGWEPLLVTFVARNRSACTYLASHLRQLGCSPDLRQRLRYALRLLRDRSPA
Fibroblast growth factor receptor 1 (Homo sapiens), sequence (P11362 22-822 limits assumed): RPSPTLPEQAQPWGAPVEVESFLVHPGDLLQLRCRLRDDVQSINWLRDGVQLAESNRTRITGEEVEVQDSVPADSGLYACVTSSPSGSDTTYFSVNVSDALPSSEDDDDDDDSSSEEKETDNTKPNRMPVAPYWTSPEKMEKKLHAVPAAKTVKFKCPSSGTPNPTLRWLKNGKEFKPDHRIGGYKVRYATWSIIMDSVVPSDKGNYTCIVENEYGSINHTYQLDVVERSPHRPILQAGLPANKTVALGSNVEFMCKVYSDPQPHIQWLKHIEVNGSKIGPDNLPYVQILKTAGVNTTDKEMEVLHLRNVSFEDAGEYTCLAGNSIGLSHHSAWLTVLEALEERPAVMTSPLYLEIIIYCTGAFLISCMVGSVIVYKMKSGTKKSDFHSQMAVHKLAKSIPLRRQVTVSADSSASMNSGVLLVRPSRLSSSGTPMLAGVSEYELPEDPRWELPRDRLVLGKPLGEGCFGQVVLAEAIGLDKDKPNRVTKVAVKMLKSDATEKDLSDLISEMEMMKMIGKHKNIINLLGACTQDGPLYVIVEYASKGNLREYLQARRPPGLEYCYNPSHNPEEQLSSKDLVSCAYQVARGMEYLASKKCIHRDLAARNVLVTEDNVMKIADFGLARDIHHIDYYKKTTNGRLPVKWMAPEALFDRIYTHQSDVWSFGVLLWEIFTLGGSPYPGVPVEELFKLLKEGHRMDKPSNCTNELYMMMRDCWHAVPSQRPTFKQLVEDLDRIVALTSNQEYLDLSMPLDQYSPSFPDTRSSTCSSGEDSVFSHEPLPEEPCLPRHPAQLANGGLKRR

Structure (SMILES): Cc1cc(C)c(CNc2nc(Cl)nc3c2ncn3C2CCCC2)c(=O)[nH]1
- viability at 0.05 µM (HCT-116): 42.6%
- Activity [1]: 111%
- Activity [2]: 100%
- Activity (Homo sapiens [3]): 103%
- Activity [4]: 107%
- Activity [5]: 115%
- Activity [6]: 109%
- Activity [7]: 95.5%
- Activity [8]: 108%
- Activity [9]: 106%
- Activity [10]: 98.5%
- Activity [11]: 94.5%
- Activity [12]: 130%
- Activity [13]: 130%
- Activity [14]: 122%
- Activity [15]: 99.5%
- Activity [16]: 106%
- Activity [17]: 99.5%
- Activity [18]: 104%
- Activity (Homo sapiens [19]): 106%
- Activity (Homo sapiens [20]): 93%
- Activity [21]: Non-Toxic
- inhibition (Tubulin (Sus scrofa)): Active
